Reference: paper PMC3104040 (Bioorganic & medicinal chemistry, 2011)

Tests used:
[1] = tested on: cowpox virus (Brighton); experiment: organism not typed; type: cell-based; conditions: HFF, read-out: EC50 in cells infected with cowpox or vaccinia virus
[2] = tested on: Vaccinia virus (Copenhagen); experiment: microbe, parasite or virus in culture; type: cell-based; conditions: Orthopoxvirus vaccinia, HFF, read-out: Vaccinia EC50
[3] = tested on: ECTV-Moscow strain; experiment: organism not typed; type: cell-based, Ectromelia

CC(C)CCCCCCCCCCCOCCCOP(=O)(O)CO[C@H](CO)Cn1ccc(N)nc1=O [Compound 12M-TRDP-CDV, 12-methyl-tridecyloxypropyl-cidofovir]
EC50 [1]: 800 to 1000 nM

CCCCCCCCCCCCCCCCOCCCOP(=O)(O)CO[C@H](CO)Cn1cnc2c(N)ncnc21 [HDP-(S)-HPMPA, hexadecyloxypropyl-(S)-HPMPA]
% intact compound, human liver S9: 92-93%

CCCCCCCCCCCCCCCCOCCCOP(=O)(O)CO[C@H](CO)Cn1ccc(N)nc1=O [HDP-CDV, hexadecyloxypropyl-cidofovir]
EC50 [2]: 80 ± 30 nM

CCCCCCCCCCCCCCCCCCOC[C@@H](COP(=O)(O)CO[C@H](CO)Cn1ccc(N)nc1=O)OCc1ccccc1 [ODBG-CDV, 1-O-octadecyl-2-O-benzyl-sn-glyceryl-3-cidofovir]
% compound remaining, Human S9 (s9, 1.5 h): 91-92%

C=CCCCCCCCCCCCCCCOCCOP(=O)(O)CO[C@H](CO)Cn1cnc2c(N)ncnc21 [HDNE-(S)-HPMPA, ω-hexadecenyloxyethyl-(S)-HPMPA]
Ectromelia S.I. (selective index) [3]: 7 | EC50 ([3]; BSC-1, read-out: antiviral activity (EC50), virus not specified): 300 to 740 nM
